Results taken from PubChem BioAssay AID1259407 (Chemical Carcinogenesis Research Information System (CCRIS), 2018).
Entries after “also recorded” stand apart in the source; their conditions may differ. Activity calls are given as the source filed them. No rule for the calls is given here.

Tested on: CCRIS mutagenicity, Ames/micronucleus/aberration tests
Assay: CCRIS mutagenicity studies

Measured: mutagenic call

COc1cc2c(c3oc(=O)c4c(c13)CCC4=O)[C@@H]1C=CO[C@@H]1O2
active: Test System: AMES SALMONELLA TYPHIMURIUM, Strain/Indicator: TA100, Metabolic Activation: MOUSE, LIVER, MICROSOMES, BENZO[E]PYRENE AND TCDD, Method: STANDARD PLATE active; positive | Test System: AMES SALMONELLA TYPHIMURIUM, Strain/Indicator: TA100, Metabolic Activation: RABBIT, LUNG, CLARA CELL-RICH FRACTION, Method: PREINCUBATION active; positive | Test System: AMES SALMONELLA TYPHIMURIUM, Strain/Indicator: TA100, Metabolic Activation: RAT LIVER S-9, DELOR 103, Method: STANDARD PLATE active; positive | Test System: AMES SALMONELLA TYPHIMURIUM, Strain/Indicator: TA100, Metabolic Activation: RAT LIVER S-9, DELOREM 103, Method: STANDARD PLATE active; positive | Test System: AMES SALMONELLA TYPHIMURIUM, Strain/Indicator: TA100, Metabolic Activation: RAT, LIVER, MICROSOMES, PHENOBARBITAL, Method: STANDARD PLATE active; positive | Test System: AMES SALMONELLA TYPHIMURIUM, Strain/Indicator: TA100, Metabolic Activation: RAT, LIVER, S-9, ACRYLAMIDE, Method: STANDARD PLATE active; positive | Test System: AMES SALMONELLA TYPHIMURIUM, Strain/Indicator: TA100, Metabolic Activation: RAT, LIVER, S-9, AROCLOR 1254, Method: MICROSUSPENSION active; positive | Test System: AMES SALMONELLA TYPHIMURIUM, Strain/Indicator: TA100, Metabolic Activation: RAT, LIVER, S-9, AROCLOR 1254, Method: PREINCUBATION active; positive | Test System: AMES SALMONELLA TYPHIMURIUM, Strain/Indicator: TA100, Metabolic Activation: RAT, LIVER, S-9, AROCLOR 1254, Method: STANDARD PLATE active; positive | Test System: AMES SALMONELLA TYPHIMURIUM, Strain/Indicator: TA100, Metabolic Activation: RAT, LIVER, S-9, PHENOBARBITAL, Method: PREINCUBATION active; positive | Test System: AMES SALMONELLA TYPHIMURIUM, Strain/Indicator: TA100, Metabolic Activation: RAT, LIVER, S-9, PHENOBARBITAL, Method: STANDARD PLATE active; positive | Test System: AMES SALMONELLA TYPHIMURIUM, Strain/Indicator: TA1538, Metabolic Activation: RAT, LIVER, S-9, AROCLOR 1254, Method: STANDARD PLATE active; positive | Test System: Ames Salmonella typhimurium, Strain/Indicator: TA98, Metabolic Activation: Rat, Liver, S-9, Aroclor 1254, Method: Preincubation active; positive (decrease in mutagenicity when 0.99-15.90 mg/plate of chloroform extrac; also recorded: active; positive (decrease in mutagenicity when 0.46-7.30 mg/plate of methanol extract o | Test System: Ames Salmonella typhimurium, Strain/Indicator: TA100, Metabolic Activation: Rat, Liver, S-9, Aroclor 1254, Method: Preincubation active; positive (decrease in mutagenicity when 0.46-7.30 mg/plate of methanol extract o | Test System: CHINESE HAMSTER V-79, Strain/Indicator: V-79/6-THIOGUANINE, Metabolic Activation: RAT, HEPATOCYTES, BUTYLATED HYDROXYANISOLE, Method: STANDARD PLATE active; positive | Test System: CHINESE HAMSTER V-79, Strain/Indicator: V-79/6-THIOGUANINE, Metabolic Activation: RAT, HEPATOCYTES, Method: STANDARD PLATE active; positive | Test System: CHINESE HAMSTER V-79, Strain/Indicator: V-79/6-THIOGUANINE, Metabolic Activation: RAT, LIVER, S-9, PHENOBARBITAL, Method: STANDARD PLATE active; positive | Test System: CHINESE HAMSTER V-79, Strain/Indicator: V-79/OUABAIN, Metabolic Activation: CELL-MEDIATED, Method: STANDARD PLATE active; positive | Test System: CHINESE HAMSTER V-79, Strain/Indicator: V-79/OUABAIN, Metabolic Activation: RAT, HEPATOCYTES, BUTYLATED HYDROXYANISOLE, Method: STANDARD PLATE active; positive | Test System: CHINESE HAMSTER V-79, Strain/Indicator: V-79/OUABAIN, Metabolic Activation: RAT, HEPATOCYTES, Method: STANDARD PLATE active; positive | Test System: UDS GUINEA PIG HEPATOCYTES, Strain/Indicator: THY INCORP, Metabolic Activation: NONE, Method: AUTORADIOGRAPHY active; positive | Test System: UDS HUMAN CELLS, Strain/Indicator: THY INCORP (NON-S-PHASE), Metabolic Activation: RAT, LIVER, S-9, PHENOBARBITAL, Method: LIQUID SCINTILLATION COUNTING active; positive | Test System: UDS HUMAN FIBROBLASTS, Strain/Indicator: THY INCORP (NON-S-PHASE), Metabolic Activation: MOUSE, LIVER, S-9, Method: AUTORADIOGRAPHY active; positive | Test System: UDS HUMAN FIBROBLASTS, Strain/Indicator: THY INCORP (NON-S-PHASE), Metabolic Activation: NONE, Method: AUTORADIOGRAPHY active; positive | Test System: UDS HUMAN FIBROBLASTS, Strain/Indicator: THY INCORP (NON-S-PHASE), Metabolic Activation: NONE, Method: LIQUID SCINTILLATION COUNTING active; positive | Test System: UDS HUMAN HEPATOCYTES, Strain/Indicator: THY INCORP, Metabolic Activation: NONE, Method: AUTORADIOGRAPHY active; positive | Test System: UDS MONKEY HEPATOCYTES, Strain/Indicator: THY INCORP, Metabolic Activation: NONE, Method: AUTORADIOGRAPHY active; positive | Test System: UDS RAT HEPATOCYTES, Strain/Indicator: BROMODEOXYURIDINE INCORP, Metabolic Activation: NONE, Method: FLOW CYTOMETRIC ANALYSIS active; positive | Test System: UDS RAT HEPATOCYTES, Strain/Indicator: THY INCORP, Metabolic Activation: AROCLOR 1254, Method: AUTORADIOGRAPHY active; positive | Test System: UDS RAT HEPATOCYTES, Strain/Indicator: THY INCORP, Metabolic Activation: NONE, Method: AUTORADIOGRAPHY active; positive | Test System: UDS RAT HEPATOCYTES, Strain/Indicator: THY INCORP, Metabolic Activation: NONE, Method: LIQUID SCINTILLATION COUNTING active; positive | Test System: UDS RODENT HEPATOCYTES, Strain/Indicator: THY INCORP (NON-S-PHASE), Method: AUTORADIOGRAPHY active; positive | Test System: UDS RODENT HEPATOCYTES, Strain/Indicator: THY INCORP (NON-S-PHASE), Method: LIQUID SCINTILLATION COUNTING active; positive | Test System: UDS RODENT PRIMARY CELLS, Strain/Indicator: THY INCORP (NON-S-PHASE), Metabolic Activation: NONE, Method: AUTORADIOGRAPHY active; positive
inactive: Test System: CHINESE HAMSTER V-79, Strain/Indicator: V-79/6-THIOGUANINE, Metabolic Activation: NONE, Method: STANDARD PLATE inactive; negative | Test System: CHINESE HAMSTER V-79, Strain/Indicator: V-79/OUABAIN, Metabolic Activation: NONE, Method: STANDARD PLATE inactive; negative
